Measured values published in ChEMBL document CHEMBL1909046, “DrugMatrix in vitro pharmacology data”.
pIC50, pKi: −log10 of the molar value.

Tests used:
[1] = biological target: T1, Alpha-1A adrenergic receptor (Rattus norvegicus, UniProt P43140); test: DRUGMATRIX: Alpha-1A adrenergic receptor radioligand binding (ligand: prazosin); type: cell membranes, Wistar, Submaxillary gland, Membrane; details: Not Active = under 50% inhibition at 10 µM
T1 sequence (P43140 whole entry): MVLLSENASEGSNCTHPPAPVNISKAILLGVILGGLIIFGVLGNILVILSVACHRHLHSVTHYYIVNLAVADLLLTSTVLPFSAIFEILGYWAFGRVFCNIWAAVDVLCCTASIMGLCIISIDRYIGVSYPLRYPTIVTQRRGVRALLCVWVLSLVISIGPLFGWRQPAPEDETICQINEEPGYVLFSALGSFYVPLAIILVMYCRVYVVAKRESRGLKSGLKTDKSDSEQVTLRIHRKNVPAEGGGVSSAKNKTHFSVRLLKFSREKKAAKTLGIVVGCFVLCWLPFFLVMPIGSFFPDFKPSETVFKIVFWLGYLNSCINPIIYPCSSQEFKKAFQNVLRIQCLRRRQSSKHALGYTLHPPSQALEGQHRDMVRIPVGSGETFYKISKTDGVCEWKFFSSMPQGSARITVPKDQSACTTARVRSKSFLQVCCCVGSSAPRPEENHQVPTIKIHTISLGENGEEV

[2] = DRUGMATRIX: Atrial Natriuretic Factor (ANF) radioligand binding (ligand: [125I] ANF (rat)); type: cell membranes, Cavia porcellus, Dunkin-Hartley, Adrenal gland, Membrane; details: Not Active = under 50% inhibition at 10 µM
[3] = biological target: T2, Vasoactive intestinal polypeptide receptor 1 (Homo sapiens, UniProt P32241); type: cell membranes, Membrane; details: ht-29; also: in other assays of this panel Not Active means under 50% inhibition at 10 µM
T2 sequence (P32241 whole entry): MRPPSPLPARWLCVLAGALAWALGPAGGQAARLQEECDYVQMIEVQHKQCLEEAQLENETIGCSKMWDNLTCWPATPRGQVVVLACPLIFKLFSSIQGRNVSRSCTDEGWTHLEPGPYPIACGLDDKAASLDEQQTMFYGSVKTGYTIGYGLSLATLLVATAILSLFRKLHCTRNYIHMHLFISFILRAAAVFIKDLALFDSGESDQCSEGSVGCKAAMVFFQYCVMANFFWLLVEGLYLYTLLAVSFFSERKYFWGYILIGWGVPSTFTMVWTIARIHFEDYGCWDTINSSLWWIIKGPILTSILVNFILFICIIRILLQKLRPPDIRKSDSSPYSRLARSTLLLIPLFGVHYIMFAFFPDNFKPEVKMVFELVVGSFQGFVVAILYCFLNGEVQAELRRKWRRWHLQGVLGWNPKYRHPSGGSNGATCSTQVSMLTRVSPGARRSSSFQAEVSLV

[4] = DRUGMATRIX: Glutamate, Kainate radioligand binding (ligand: [3H] Kainic acid); type: cell membranes, Rattus norvegicus, Wistar, Brain, Membrane; details: Not Active = under 50% inhibition at 10 µM
[5] = biological target: T3, Muscarinic acetylcholine receptor M2 (Homo sapiens, UniProt P08172); type: cell membranes, CHO-K1, Membrane; details: cho-k1; also: in other assays of this panel Not Active means under 50% inhibition at 10 µM
T3 sequence (P08172 whole entry): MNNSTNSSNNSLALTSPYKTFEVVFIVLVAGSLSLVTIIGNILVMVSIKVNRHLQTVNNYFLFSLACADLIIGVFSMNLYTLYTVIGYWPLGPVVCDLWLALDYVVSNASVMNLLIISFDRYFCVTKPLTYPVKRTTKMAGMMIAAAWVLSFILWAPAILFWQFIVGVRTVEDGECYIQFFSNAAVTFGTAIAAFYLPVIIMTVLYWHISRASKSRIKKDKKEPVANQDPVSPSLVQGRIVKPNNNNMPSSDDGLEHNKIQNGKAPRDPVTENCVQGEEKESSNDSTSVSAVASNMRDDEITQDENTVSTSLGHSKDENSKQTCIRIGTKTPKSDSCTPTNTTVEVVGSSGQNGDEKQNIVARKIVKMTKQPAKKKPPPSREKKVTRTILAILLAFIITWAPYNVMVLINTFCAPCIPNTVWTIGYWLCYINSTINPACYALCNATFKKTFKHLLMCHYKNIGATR

[6] = biological target: Delta-type opioid receptor (Homo sapiens, UniProt P41143); type: cell membranes, HEK293, Membrane; details: for IC50: hek293; as to all read-outs here: in other assays of this panel Not Active means under 50% inhibition at 10 µM
Delta-type opioid receptor, sequence (P41143 whole entry): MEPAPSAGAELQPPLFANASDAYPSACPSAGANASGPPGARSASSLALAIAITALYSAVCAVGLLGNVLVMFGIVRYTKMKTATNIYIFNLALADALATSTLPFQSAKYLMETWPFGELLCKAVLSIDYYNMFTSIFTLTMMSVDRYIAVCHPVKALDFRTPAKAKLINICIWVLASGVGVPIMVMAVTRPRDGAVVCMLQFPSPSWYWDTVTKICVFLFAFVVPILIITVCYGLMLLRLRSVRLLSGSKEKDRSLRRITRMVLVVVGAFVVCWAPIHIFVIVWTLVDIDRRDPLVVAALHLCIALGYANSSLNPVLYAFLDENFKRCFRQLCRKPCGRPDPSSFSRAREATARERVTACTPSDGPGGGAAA

[7] = biological target: Protein kinase C alpha type (Homo sapiens, UniProt P17252); type: cell-based; details: sf9;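 also: inhibition of PKCalpha kinase activity measured in an enzyme assay with histone as the phosphorylation substrate; in other assays of this panel Not Active means under 50% inhibition at 10 µM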

Structure (SMILES) | IC50 [1] | IC50 [2] | Ki [2] | IC50 [3] | IC50 [4] | Ki [4] | IC50 [5] | pIC50 ([6]; read-out: IC50) | pKi ([6]; read-out: Ki) | IC50 [7] | IC50 [6]
Cc1c(O)cccc1C(=O)N[C@@H](CSc1ccccc1)[C@H](O)CN1C[C@H]2CCCC[C@H]2C[C@H]1C(=O)NC(C)(C)C | Not Active | Not Active | Not Active | Not Active | Not Active | Not Active | Not Active | 4.18 | 4.63 | Not Active | –
Cc1cccc(C)c1NC(=O)C1CCCCN1C (stereo not given) [MEPIVACAINE] | Not Active | Not Active | Not Active | Not Active | Not Active | Not Active | Not Active | – | – | Not Active | Not Active
O=c1[nH]c(=O)n([C@H]2C[C@H](O)[C@@H](CO)O2)cc1F [FLOXURIDINE] | Not Active | Not Active | Not Active | Not Active | Not Active | Not Active | Not Active | – | – | Not Active | Not Active
O=C(O)CC(O)(CC(=O)O)C(=O)O [CITRIC ACID] | Not Active | Not Active | Not Active | Not Active | Not Active | Not Active | Not Active | – | – | Not Active | Not Active
Cc1cc(O)cc(C)c1Cl [CHLOROXYLENOL] | Not Active | Not Active | Not Active | Not Active | Not Active | Not Active | Not Active | – | – | Not Active | Not Active
O=C(O)CCCc1cccs1 | Not Active | Not Active | Not Active | Not Active | Not Active | Not Active | Not Active | – | – | Not Active | Not Active
CCCNC(=O)NS(=O)(=O)c1ccc(Cl)cc1 [CHLORPROPAMIDE] | Not Active | Not Active | Not Active | Not Active | Not Active | Not Active | Not Active | – | – | Not Active | Not Active
CC(=O)OC[C@H]1O[C@@H](n2ncc(=O)[nH]c2=O)[C@H](OC(C)=O)[C@@H]1OC(C)=O [AZARIBINE] | Not Active | Not Active | Not Active | Not Active | Not Active | Not Active | Not Active | – | – | Not Active | Not Active
NCCCNCCSP(=O)(O)O [AMIFOSTINE] | Not Active | Not Active | Not Active | Not Active | Not Active | Not Active | Not Active | – | – | Not Active | Not Active
CC(C)(C)NCC(O)COc1cccc2c1CC(O)C(O)C2 (stereo not given) [NADOLOL] | Not Active | Not Active | Not Active | Not Active | Not Active | Not Active | Not Active | – | – | Not Active | Not Active
C[C@H]1COc2c(N3CCN(C)CC3)c(F)cc3c(=O)c(C(=O)O)cn1c23.C[C@H]1COc2c(N3CCN(C)CC3)c(F)cc3c(=O)c(C(=O)O)cn1c23.O [LEVOFLOXACIN] | Not Active | Not Active | Not Active | Not Active | Not Active | Not Active | Not Active | – | – | Not Active | Not Active
